Assay results from paper PMC12682859, “Interconnected roles of mitochondrial carrier proteins ANT, PiT, and UCPs in proton transport” (Frontiers in Molecular Biosciences, 2025).

B1: uncoupling protein 2 (UCP2), recombinant His6-tagged (natural protein, human, UniProt P55851 1-309, looked up)
chain: MVGFKATDVPPTATVKFLGAGTAACIADLITFPLDTAKVRLQIQGESQGPVRATASAQYRGVMGTILTMVRTEGPRSLYNGLVAGLQRQMSFASVRIGLYDSVKQFYTKGSEHASIGSRLLAGSTTGALAVAVAQPTDVVKVRFQAQARAGGGRRYQSTVNAYKTIAREEGFRGLWKGTSPNVARNAIVNCAELVTYDLIKDALLKANLMTDDLPCHFTSAFGAGFCTTVIASPVDVVKTRYMNSALGQYSSAGHCALTMLQKEGPRAFYKGFMPSFLRLGSWNVVMFVTYEQLKRALMAACTSREAPF
notes: human UCP2, UniProt P55851; Cloned in pET26b(+); purified as a monomer in OG, tetramer after reconstitution in liposomes; source: E. coli BL21 (DE3) or BL21 CodonPlus (DE3)-RIPL, extracted from bacterial membranes, purified (Ni-NTA IMAC, 1% OG); not shown: pelB leader, N-terminal, cleaved; His6, N-terminal, kept
B2: uncoupling protein 4 (UCP4), recombinant His6-tagged (natural protein, human, UniProt O95847 1-323, looked up)
chain: MSVPEEEERLLPLTQRWPRASKFLLSGCAATVAELATFPLDLTKTRLQMQGEAALARLGDGARESAPYRGMVRTALGIIEEEGFLKLWQGVTPAIYRHVVYSGGRMVTYEHLREVVFGKSEDEHYPLWKSVIGGMMAGVIGQFLANPTDLVKVQMQMEGKRKLEGKPLRFRGVHHAFAKILAEGGIRGLWAGWVPNIQRAALVNMGDLTTYDTVKHYLVLNTPLEDNIMTHGLSSLCSGLVASILGTPADVIKSRIMNQPRDKQGRGLLYKSSTDCLIQAVQGEGFMSLYKGFLPSWLRMTPWSMVFWLTYEKIREMSGVSPF
notes: human UCP4, UniProt O95847; Cloned in pET26b(+); purified as a monomer in OG, tetramer after reconstitution in liposomes; source: E. coli BL21 (DE3) or BL21 CodonPlus (DE3)-RIPL, extracted from bacterial membranes, purified (Ni-NTA IMAC, 1% OG); not shown: pelB leader, N-terminal, cleaved; His6, N-terminal, kept

What was measured:
[1] = target: T1, UCP4:ANT1 heterotetramer (1:1) (Homo sapiens; Bos taurus, UniProt O95847+P02722); type: biochemical; conditions: 500 uM ATP; EYPC without added cardiolipin, 100 uM palmitic acid, valinomycin, pH 7.2, 25 C
T1 construct: gene SLC25A27; co-reconstituted 1:1 in liposomes from purified N-terminally His6-tagged monomers (bovine ANT1, human UCP4); heterotetramer
T1 sequence (O95847 1-323): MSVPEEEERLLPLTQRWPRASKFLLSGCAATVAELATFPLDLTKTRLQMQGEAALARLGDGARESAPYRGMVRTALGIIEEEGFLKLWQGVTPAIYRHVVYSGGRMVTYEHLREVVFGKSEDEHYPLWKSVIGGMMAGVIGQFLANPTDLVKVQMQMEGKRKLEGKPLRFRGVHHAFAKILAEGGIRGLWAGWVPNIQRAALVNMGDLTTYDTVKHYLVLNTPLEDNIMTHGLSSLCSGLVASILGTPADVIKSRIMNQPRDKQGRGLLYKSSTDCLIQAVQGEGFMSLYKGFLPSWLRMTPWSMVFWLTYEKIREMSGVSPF
T1 sequence (P02722 2-298): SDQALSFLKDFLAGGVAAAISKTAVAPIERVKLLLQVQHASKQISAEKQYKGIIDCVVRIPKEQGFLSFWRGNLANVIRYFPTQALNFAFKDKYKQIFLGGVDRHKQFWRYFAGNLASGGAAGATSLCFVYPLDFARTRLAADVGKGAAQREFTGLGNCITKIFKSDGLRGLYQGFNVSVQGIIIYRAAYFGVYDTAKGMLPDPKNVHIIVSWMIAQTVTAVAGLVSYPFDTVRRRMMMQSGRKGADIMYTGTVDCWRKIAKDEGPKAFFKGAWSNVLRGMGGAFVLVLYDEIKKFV

[2] = target: T2, UCP2:ANT1 heterotetramer (1:1) (Homo sapiens; Bos taurus, UniProt P02722+P55851); type: biochemical; conditions: 500 uM ATP; EYPC without added cardiolipin, 100 uM palmitic acid, valinomycin, pH 7.2, 25 C
T2 construct: co-reconstituted 1:1 in liposomes from purified N-terminally His6-tagged monomers (bovine ANT1, human UCP2); heterotetramer
T2 sequence (P55851 1-309): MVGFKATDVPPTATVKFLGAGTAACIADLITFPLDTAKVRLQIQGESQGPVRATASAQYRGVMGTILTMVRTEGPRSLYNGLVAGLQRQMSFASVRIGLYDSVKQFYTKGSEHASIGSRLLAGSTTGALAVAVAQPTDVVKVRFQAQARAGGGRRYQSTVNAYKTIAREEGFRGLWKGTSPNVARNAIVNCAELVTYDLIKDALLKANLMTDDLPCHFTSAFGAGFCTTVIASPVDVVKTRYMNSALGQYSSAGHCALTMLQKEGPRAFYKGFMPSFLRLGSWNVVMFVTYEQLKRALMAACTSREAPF
T2 sequence (P02722 2-298): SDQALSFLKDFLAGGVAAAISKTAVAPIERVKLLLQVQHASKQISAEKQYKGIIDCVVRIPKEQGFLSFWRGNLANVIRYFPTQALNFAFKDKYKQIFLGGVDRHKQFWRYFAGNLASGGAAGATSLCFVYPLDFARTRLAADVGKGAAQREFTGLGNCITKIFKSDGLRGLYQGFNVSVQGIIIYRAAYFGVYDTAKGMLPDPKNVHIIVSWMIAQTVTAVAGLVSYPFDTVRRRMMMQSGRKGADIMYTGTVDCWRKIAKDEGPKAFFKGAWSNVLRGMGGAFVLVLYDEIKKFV

ANT1 [3] = target: T3, ANT1 (Bos taurus, UniProt P02722); set-up: gene SLC25A4; conditions: 500 uM ATP; EYPC without added cardiolipin, 100 uM palmitic acid, valinomycin, pH 7.2, 25 C
T3 sequence (P02722 2-298): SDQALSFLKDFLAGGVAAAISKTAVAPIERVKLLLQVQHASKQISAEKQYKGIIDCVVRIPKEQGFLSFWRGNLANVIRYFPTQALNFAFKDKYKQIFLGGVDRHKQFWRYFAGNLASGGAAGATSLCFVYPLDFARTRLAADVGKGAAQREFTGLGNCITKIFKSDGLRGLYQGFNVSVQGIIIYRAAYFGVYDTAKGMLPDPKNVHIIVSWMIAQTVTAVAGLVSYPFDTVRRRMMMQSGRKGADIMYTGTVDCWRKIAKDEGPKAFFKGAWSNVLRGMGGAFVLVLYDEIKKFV

UCP2 [4] = target: T4, UCP2 (Homo sapiens, UniProt P55851); assay: SPQ fluorescence proton efflux in proteoliposomes; type: biochemical; conditions: 500 uM GTP; EYPC with or without 2.5% cardiolipin, 100 uM palmitic or oleic acid, valinomycin, pH 7.2, 25 C
T4 construct: full length, N-terminal His6 tag kept, pelB leader removed; E. coli membranes; homotetramer in liposomes
T4 sequence (P55851 1-309): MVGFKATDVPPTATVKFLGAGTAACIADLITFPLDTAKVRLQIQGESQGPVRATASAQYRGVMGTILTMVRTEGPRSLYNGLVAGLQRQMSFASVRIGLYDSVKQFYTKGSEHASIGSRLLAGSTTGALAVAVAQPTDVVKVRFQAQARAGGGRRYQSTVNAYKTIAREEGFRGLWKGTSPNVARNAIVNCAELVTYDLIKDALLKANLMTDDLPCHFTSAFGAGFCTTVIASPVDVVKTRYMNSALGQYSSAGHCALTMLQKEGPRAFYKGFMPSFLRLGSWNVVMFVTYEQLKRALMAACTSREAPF

UCP4 [5] = target: T5, UCP4 (Homo sapiens, UniProt O95847); assay: SPQ fluorescence proton efflux in proteoliposomes; type: biochemical; conditions: 500 uM GTP; EYPC with or without 2.5% cardiolipin, 100 uM palmitic or oleic acid, valinomycin, pH 7.2, 25 C
T5 construct: gene SLC25A27; full length, N-terminal His6 tag kept, pelB leader removed; E. coli membranes; homotetramer in liposomes
T5 sequence (O95847 1-323): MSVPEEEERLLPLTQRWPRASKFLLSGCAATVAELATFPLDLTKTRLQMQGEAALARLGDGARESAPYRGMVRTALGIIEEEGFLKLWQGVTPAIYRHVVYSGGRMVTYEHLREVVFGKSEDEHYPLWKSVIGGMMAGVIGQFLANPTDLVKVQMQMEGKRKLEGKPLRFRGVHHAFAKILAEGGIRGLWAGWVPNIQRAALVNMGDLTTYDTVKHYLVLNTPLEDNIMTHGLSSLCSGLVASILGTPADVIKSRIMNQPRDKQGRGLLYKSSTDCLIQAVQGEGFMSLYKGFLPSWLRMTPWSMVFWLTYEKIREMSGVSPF

PiT (PiT-B) = target: T6, PiT (PiT-B) (Homo sapiens, UniProt Q00325); assay: SPQ fluorescence proton efflux in proteoliposomes; type: biochemical; conditions: EYPC liposomes, valinomycin, pH 7.2, 25 C
T6 construct: gene SLC25A3; isoform B, N-terminal His6 tag kept, pelB leader removed; E. coli membranes; mainly monomer in liposomes
T6 sequence (Q00325 50-361 isoform Q00325-2): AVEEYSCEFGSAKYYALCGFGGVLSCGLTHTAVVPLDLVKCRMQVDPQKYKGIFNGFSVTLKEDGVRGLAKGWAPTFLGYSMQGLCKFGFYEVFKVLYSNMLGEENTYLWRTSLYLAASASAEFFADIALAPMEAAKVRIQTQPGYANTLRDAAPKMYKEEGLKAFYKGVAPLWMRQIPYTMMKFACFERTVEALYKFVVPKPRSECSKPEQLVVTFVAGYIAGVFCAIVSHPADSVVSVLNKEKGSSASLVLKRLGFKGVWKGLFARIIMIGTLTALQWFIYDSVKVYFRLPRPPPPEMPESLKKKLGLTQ

UCP4 [6] = target: T5, UCP4; assay: SPQ fluorescence proton efflux in proteoliposomes; type: biochemical; conditions: EYPC liposomes, valinomycin, pH 7.2, 25 C
ANT1 [7] = target: T3, ANT1; assay: SPQ fluorescence proton efflux in proteoliposomes; type: biochemical; set-up: gene SLC25A4; full length, N-terminal His6 tag kept, pelB leader removed; E. coli membranes; mainly monomer in liposomes; conditions: EYPC liposomes, valinomycin, pH 7.2, 25 C
UCP2 [8] = target: T4, UCP2; assay: SPQ fluorescence proton efflux in proteoliposomes; type: biochemical; conditions: EYPC liposomes, valinomycin, pH 7.2, 25 C
[9] = target: B2; assay: semi-native SDS-PAGE; two purified monomeric proteins co-reconstituted 1:1 in liposomes (UCP4:ANT1 also 3:1 and 1:3), regardless of lipid composition (EYPC with or without 2.5% CL); Coomassie staining; conditions: both partners purified
[10] = target: the molecule itself; assay: semi-native SDS-PAGE; single purified protein reconstituted in liposomes of egg yolk extract (EYPC, ~60% PC) without added cardiolipin; 0.1% SDS in gel and running buffer, samples not heated; Coomassie staining
[11] = target: B1; assay: semi-native SDS-PAGE; two purified monomeric proteins co-reconstituted 1:1 in liposomes (UCP4:ANT1 also 3:1 and 1:3), regardless of lipid composition (EYPC with or without 2.5% CL); Coomassie staining; conditions: both partners purified
[12] = 100 uM palmitic acid as activator

Molecule: Nc1ncnc2c1ncn2[C@@H]1O[C@H](COP(=O)(O)OP(=O)(O)OP(=O)(O)O)[C@@H](O)[C@H]1O [ATP]
- % inhibition at 500 uM [1]: ATP significantly inhibited combinations of UCP2 or UCP4 with ANT1
- % inhibition at 500 uM [2]: ATP significantly inhibited combinations of UCP2 or UCP4 with ANT1
- % inhibition at 500 uM (ANT1 [3]): proton transport was inhibited by ATP more effectively than by GTP

Molecule: Nc1nc2c(ncn2[C@@H]2O[C@H](COP(=O)(O)OP(=O)(O)OP(=O)(O)O)[C@@H](O)[C@H]2O)c(=O)[nH]1 [GTP]
- % inhibition at 500 uM (UCP2 [4]): GTP is overall a more effective inhibitor than ATP of UCP2 and UCP4
- % inhibition at 500 uM (UCP4 [5]): GTP is overall a more effective inhibitor than ATP of UCP2 and UCP4

Molecule: CCCCCCCC/C=C\CCCCCCCC(=O)O [OA, oleic acid]
- SPQ fluorescence proton efflux in proteoliposomes (PiT (PiT-B); 100 uM oleic acid as activator): For each individual protein, OA was a significantly more potent activator than PA
- SPQ fluorescence proton efflux in proteoliposomes (UCP4 [6]; 100 uM oleic acid as activator): For each individual protein, OA was a significantly more potent activator than PA
- fatty-acid-activated proton transport (qualitative finding) (ANT1 [7]; 100 uM oleic acid as activator): For each individual protein, OA was a significantly more potent activator than PA
- fatty acid-activated proton efflux (qualitative) (UCP2 [8]; 100 uM oleic acid as activator): For each individual protein, OA was a significantly more potent activator than PA

Molecule: CCCCCCCCCCCCCCCC(=O)O [PA, palmitic acid]
- SPQ fluorescence proton efflux in proteoliposomes (PiT (PiT-B); [12]): both OA and PA interacted with all proteins and their combinations
- SPQ fluorescence proton efflux in proteoliposomes (UCP4 [6]; [12]): both OA and PA interacted with all proteins and their combinations
- fatty-acid-activated proton transport (qualitative finding) (ANT1 [7]; [12]): both OA and PA interacted with all proteins and their combinations
- fatty acid-activated proton efflux (qualitative) (UCP2 [8]; [12]): both OA and PA interacted with all proteins and their combinations

Molecule: B1
- binding result [9]: binds
- stoichiometry N [10]: 4

Molecule: B2
- stoichiometry N [10]: 4

B3: adenine nucleotide translocase 1 (ANT1), recombinant His6-tagged (natural protein, bovine)
chain: SDQALSFLKDFLAGGVAAAISKTAVAPIERVKLLLQVQHASKQISAEKQYKGIIDCVVRIPKEQGFLSFWRGNLANVIRYFPTQALNFAFKDKYKQIFLGGVDRHKQFWRYFAGNLASGGAAGATSLCFVYPLDFARTRLAADVGKGAAQREFTGLGNCITKIFKSDGLRGLYQGFNVSVQGIIIYRAAYFGVYDTAKGMLPDPKNVHIIVSWMIAQTVTAVAGLVSYPFDTVRRRMMMQSGRKGADIMYTGTVDCWRKIAKDEGPKAFFKGAWSNVLRGMGGAFVLVLYDEIKKFV
notes: bovine ANT1, UniProt P02722; Cloned in pET26b(+); also called ADP/ATP carrier; AAC; source: E. coli BL21 (DE3) or BL21 CodonPlus (DE3)-RIPL, extracted from bacterial membranes, purified (Ni-NTA IMAC, 1% OG); not shown: pelB leader, N-terminal, cleaved; His6, N-terminal, kept
- binding result [11]: binds
- binding result [9]: binds
- stoichiometry N [10]: 2
